Legend:
CMV = CMV trans-infection assay: virus-pulsed DC-SIGN+ cells co-cultured with MRC-5 cells; assay type: cell-based, Human Cytomegalovirus; conditions: MD-DC, DC-SIGN+ THP-1 or DC-SIGN+ HeLa cells pre-incubated before pulse with CMV
Experimental: For trans-infection experiments, cells were incubated with viral suspensions (CMV, VZV or HSV-1, MOI=1) for 2 hr, at 37° C. Thereafter, unbound viral particles were removed by extensive washes and cells were co-cultured with sub-confluent MRC-5 or U373 MG cell monolayers. After 24 to 72 hr, infected MRC-5 or U373-MG cells were fixed, permeabilized and stained with specific mAbs directed against IEA- or EA-CMV (mAbs E13 and 2A2, respectively), VZV (mAb 2013) or HSV (mAb CHA-437) (Argen Biosoft, Varilhes, France). When indicated MD-DC or THP-1 (parental or DC-SIGN^+) cells were incubated with EGTA (5 mM), mannan or anti-DC-SIGN (1B10.2.6 mAb) for 30 minutes at 4° C. prior challenge with infectious preparations. Infection by ADGFP strain was assessed by counting GFP-expressing cells at day 3. For long term infectivity experiments DC-SIGN^+ or parental THP-1 cells were incubated with ADGFP (MOI=1) for 4 hr at 37° C. After extensive washes, infected cells were incubated at 37° C. and an aliquot of these cells was added to a sub-confluent MRC-5 cell culture every 2 days during the assay.
MD-DC, THP-1 or HeLa expressing DC-SIGN were incubated with a mutant CMV strain encoding a GFP (ADGFP) (Borst et al., 2001). […]
The capacity of DC-SIGN to enhance infectiveness of CMV was assessed. […]

DC-SIGN [1] = molecular target: T1, DC-SIGN (Homo sapiens, UniProt Q9NNX6); assay type: binding; parameters: expressed in transfected cells; conditions: data not shown
T1 sequence (Q9NNX6 1-404): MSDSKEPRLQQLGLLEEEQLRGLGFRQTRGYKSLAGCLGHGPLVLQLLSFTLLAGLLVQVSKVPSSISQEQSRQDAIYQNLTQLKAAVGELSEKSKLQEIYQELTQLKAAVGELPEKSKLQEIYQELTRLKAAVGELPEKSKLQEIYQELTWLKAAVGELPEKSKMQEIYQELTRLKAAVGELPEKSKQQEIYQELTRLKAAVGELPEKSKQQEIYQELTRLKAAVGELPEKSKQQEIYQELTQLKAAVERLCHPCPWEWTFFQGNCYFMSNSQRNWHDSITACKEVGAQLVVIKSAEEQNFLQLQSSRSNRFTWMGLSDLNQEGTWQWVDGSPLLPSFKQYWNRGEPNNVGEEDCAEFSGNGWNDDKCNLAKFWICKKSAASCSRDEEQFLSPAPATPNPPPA

DC-SIGNR = molecular target: T2, DC-SIGNR (Homo sapiens, UniProt Q9H2X3); assay type: binding; conditions: data not shown
T2 construct: expressed in transfected cells; host or cells: HEK 293T, transient transfection; cDNA a gift from Dr R. W. Doms
T2 sequence (Q9H2X3 whole entry): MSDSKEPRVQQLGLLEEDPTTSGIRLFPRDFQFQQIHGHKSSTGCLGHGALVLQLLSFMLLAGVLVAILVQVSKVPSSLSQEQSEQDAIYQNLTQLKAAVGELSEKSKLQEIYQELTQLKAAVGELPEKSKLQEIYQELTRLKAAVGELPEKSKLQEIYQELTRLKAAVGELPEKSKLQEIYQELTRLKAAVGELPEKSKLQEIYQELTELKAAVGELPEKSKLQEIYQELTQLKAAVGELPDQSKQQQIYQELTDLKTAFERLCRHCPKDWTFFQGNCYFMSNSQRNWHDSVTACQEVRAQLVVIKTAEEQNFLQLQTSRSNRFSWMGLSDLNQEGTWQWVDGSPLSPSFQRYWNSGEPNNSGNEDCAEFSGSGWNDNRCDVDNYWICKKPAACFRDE

DC-SIGN [2] = molecular target: T1, DC-SIGN; experiment: HIV-1 gp120 binding competition assay on DC-SIGN+ THP-1 cells; parameters: expressed in transfected cells; host or cells: THP-1 (gift of Dr. D. R. Littman; Kwon et al., 2002); conditions: DC-SIGN+ THP-1 cells pre-treated with competitors (20 μg/ml)
Experimental: DC-SIGN^+ THP-1 cells were washed two times, resuspended in ice-cold binding buffer (1 mM CaCl2, 2 mM MgCl2 and 0.1% Bovine Serum Albumin in PBS) at 10^6 cells/mL and pre-treated or not for 15 minutes with competitors (20 μg/ml). Thereafter, recombinant biotinylated CXCR4-tropic (MN isolate) HIV-1 gp120 (2 μg/ml; Immunodiagnostics Inc., Woburg, Mass.) was added for 30 minutes at 4° C.
In this assay we pre-incubated DC-SIGN^+ THP-1 cells with purified HIV-1 gp120, CMV gB, HSV-1 gB, VZV gB, HSV-1 gD or VZV gE. Following exposure to each single envelope glycoprotein, cells were incubated with biotinylated HIV-1 gp120, which binding to DC-SIGN^+ THP-1 cells was evidenced by immunostaining and FACS analysis.

DC-SIGN [3] = molecular target: T1, DC-SIGN; experiment: Binding of CMV virions to DC-SIGN-expressing cells (flow cytometry, anti-CMV gB mAb); assay type: cell-based; parameters: expressed in transfected cells; host or cells: THP-1 (gift of Dr. D. R. Littman; Kwon et al., 2002); conditions: pre-incubation of cells with the substance
Experimental: The capacity of CMV to bind DC-SIGN was investigated. Parental and DC-SIGN^+ THP-1 cells, or immature monocyte-derived DC (MD-DC) were incubated on ice with increasing concentrations of CMV and the presence of cell-bound virions was quantified by flow cytometry using a mAb directed against the CMV gB.

Row | Compound | Trans-infection of MRC-5 cells / transmission of CMV from DC-SIGN+ cells to MRC-5 cells (CMV) | Binding of HIV-1 gp120 and CMV gB to HEK 293T cells expressing DC-SIGN (DC-SIGN [1]) | Binding of HIV-1 gp120 and CMV gB to HEK 293T cells expressing DC-SIGNR (DC-SIGNR) | Binding of biotinylated HIV-1 gp120 on DC-SIGN (competition) (DC-SIGN [2]) | CMV virion attachment to cells (DC-SIGN [3])
1 | O=C(O)CN(CCOCCOCCN(CC(=O)O)CC(=O)O)CC(=O)O [EGTA] | prevented | blocked | blocked |  | 
2 | mannan | prevented |  |  | competitive effect | Abrogation
